Reference: US20170066759A1, “AROMATIC 5-MEMBERED HETEROCYCLIC DERIVATIVE HAVING TRPV4-INHIBITING ACTIVITY” (Shionogi & Co., Ltd., priority 2012, published 2017)

Legend:
[1] = target: T1, human TRPV4 (hTRPV4/CHO cells) (Homo sapiens, UniProt Q9HBA0); experiment: Test Example 4: TRPV4 inhibitory activity (Ki value), 4α-PDD stimulation, Fluo-3 calcium fluorescence (FDSS 3000); format: cell-based; settings: Test Example 4, 4α-PDD stimulation, read-out: Test 4 Ki
T1 construct: expressed in transfected cells; host or cells: CHO-K1
T1 sequence (Q9HBA0 whole entry): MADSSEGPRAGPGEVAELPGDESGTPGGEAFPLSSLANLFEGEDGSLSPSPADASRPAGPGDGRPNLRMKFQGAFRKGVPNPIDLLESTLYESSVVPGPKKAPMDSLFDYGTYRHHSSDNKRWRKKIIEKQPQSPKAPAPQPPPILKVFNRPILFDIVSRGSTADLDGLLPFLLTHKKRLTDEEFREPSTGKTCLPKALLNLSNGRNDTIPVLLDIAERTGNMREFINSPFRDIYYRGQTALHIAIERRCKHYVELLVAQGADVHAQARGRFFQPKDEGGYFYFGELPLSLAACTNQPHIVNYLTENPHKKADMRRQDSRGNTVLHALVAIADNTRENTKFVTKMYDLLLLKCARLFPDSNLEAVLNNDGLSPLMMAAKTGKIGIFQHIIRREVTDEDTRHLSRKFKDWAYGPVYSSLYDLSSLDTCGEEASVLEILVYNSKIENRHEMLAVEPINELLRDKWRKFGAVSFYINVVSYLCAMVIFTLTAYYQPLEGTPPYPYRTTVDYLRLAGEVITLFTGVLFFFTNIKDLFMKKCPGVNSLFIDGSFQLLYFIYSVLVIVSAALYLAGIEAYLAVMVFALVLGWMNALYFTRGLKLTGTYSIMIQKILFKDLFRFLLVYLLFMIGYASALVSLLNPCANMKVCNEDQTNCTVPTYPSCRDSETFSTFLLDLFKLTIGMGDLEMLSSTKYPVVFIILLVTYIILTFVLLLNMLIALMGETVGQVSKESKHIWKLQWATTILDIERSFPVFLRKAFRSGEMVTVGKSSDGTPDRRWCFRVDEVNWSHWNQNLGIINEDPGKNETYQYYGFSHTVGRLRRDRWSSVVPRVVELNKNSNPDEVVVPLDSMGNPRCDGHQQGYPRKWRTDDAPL
Outline: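 hTRPV4/CHO-K1 cells loaded with 5 μmol/L Fluo-3 in HBSS/HEPES pH 7.5 with probenecid; compound (10 μmol/L to 0.5 nmol/L final, 10 points) added before 4α-PDD, fluorescence read 8 min at Ex 480/Em 540 nm. Max−Min signal normalised to 10 μM Ruthenium Red (100%) and no compound (0%); IC50 converted to Ki using 4α-PDD EC50.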

[2] = Test Example 8: Solubility test; format: physicochemical; settings: fassgf or other biorelevant, kinetic from dmso stock; 1% DMSO addition, artificial intestinal juice pH 6.8, 16 hours at 25° C.
Description: The solubility of a compound of the present invention was determined under 1% DMSO addition conditions. A 10 mmol/L solution of the compound was prepared with DMSO, and 6 μL of the solution of the compound of the present invention was added to 594 μL of an artificial intestinal juice (water and 118 mL of 0.2 mol/L NaOH reagent were added to 250 mL of 0.2 mol/L potassium dihydrogen phosphate reagent to reach 1000 mL) with a pH of 6.8. The mixture was left standing for 16 hours at 25° C., and the mixture was vacuum-filtered. The filtrate was two-fold diluted with methanol/water=1/1 (V/V), and the compound concentration in the filtrate was measured with HPLC or LC/MS/MS by the absolute calibration method.

[3] = Test Example 9: Metabolism stability test; format: in vitro ADME; settings: human liver microsomes 0.5 mg protein/mL, 30 minutes at 37° C., NADPH, compound concentration 0.5 μmol/L
Description: Metabolism Stability Test
Using a commercially available pooled human hepatic microsomes, a compound of the present invention was reacted for a constant time, a remaining rate was calculated by comparing a reacted sample and an unreacted sample, thereby, a degree of metabolism in liver was assessed.
A reaction was performed (oxidative reaction) at 37° C. for 0 minute or 30 minutes in the presence of 1 mmol/L NADPH in 0.2 mL of a buffer (50 mmol/L Tris-HCl pH 7.4, 150 mmol/L potassium chloride, 10 mmol/L magnesium chloride) containing 0.5 mg protein/mL of human liver microsomes. After the reaction, 50 μL of the reaction mixture was added to 100 μL of a methanol/acetonitrile=1/1 (v/v), mixed and centrifuged at 3000 rpm for 15 minutes. The compound of the present invention in the supernatant was quantified by LC/MS/MS, and a remaining amount of the compound of the present invention after the reaction was calculated, letting a compound amount at 0 minute reaction time to be 100%. Hydrolysis reaction was performed in the absence of NADPH and glucuronidation reaction was in the presence of 5 mmol/L UDP-glucuronic acid in place of NADPH, followed by similar operations.
(Results) Compound concentration: 0.5 μmol/L

Row | SMILES | Ki [1] [nM] | solubility at 16 h [2] [µM] | Metabolism stability: remaining amount of the compound after the reaction [3] [%]
1 | Cc1nc(C)c(-c2csc(NC(=O)Cc3ccc(S(C)(=O)=O)cc3)n2)s1 [Compound I-17] | 100 to 1000 | > 50 | 92.2
2 | Cc1nc(C)c(-c2csc(NC(=O)C3CCC(F)(F)C3)n2)s1 (stereo not drawn) [Compound I-18] | < 100 | > 50 | 86.4
